How the values were obtained:
rape = experiment: Test B pre/postemergence rape; assay type: in vivo, Brassica napus
Method in brief: (§1)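 Response is a visual 0-to-10 score relative to untreated plants, where 0 means no effect and 10 means complete control, taken twelve to sixteen days after application. Treatments went onto soil at planting and onto foliage of 1- to 4-leaf plants, using a surfactant-containing non-phytotoxic solvent.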

giant foxtail = experiment: Test B pre/postemergence giant foxtail; assay type: in vivo, Setaria faberii
Method in brief: as §1

crabgrass = experiment: Test B pre/postemergence crabgrass; assay type: in vivo, Digitaria sanguinalis
Method in brief: as §1

wheat = experiment: Test B pre/postemergence wheat; assay type: in vivo, Triticum aestivum
Method in brief: as §1

velvetleaf = experiment: Test B pre/postemergence velvetleaf; assay type: in vivo, Abutilon theophrasti
Method in brief: as §1

soybean = experiment: Test B pre/postemergence soybean; assay type: in vivo, Glycine max
Method in brief: as §1

cocklebur = experiment: Test B pre/postemergence cocklebur; assay type: in vivo, Xanthium strumarium
Method in brief: as §1

blackgrass = experiment: Test B pre/postemergence blackgrass; assay type: in vivo, Alopecurus myosuroides
Method in brief: as §1

corn = experiment: Test B pre/postemergence corn; assay type: in vivo, Zea mays
Method in brief: as §1

sugar beet = experiment: Test B pre/postemergence sugar beet; assay type: in vivo, Beta vulgaris
Method in brief: as §1

morningglory = experiment: Test B pre/postemergence morningglory; assay type: in vivo, Ipomoea hederacea
Method in brief: as §1

wild oat = experiment: Test B pre/postemergence wild oat; assay type: in vivo, Avena fatua
Method in brief: as §1

bedstraw = experiment: Test B pre/postemergence bedstraw; assay type: in vivo, Galium aparine
Method in brief: as §1

purple nutsedge = experiment: Test B pre/postemergence purple nutsedge; assay type: in vivo, Cyperus rotundus
Method in brief: as §1

pigweed = experiment: Test B pre/postemergence pigweed; assay type: in vivo, Amaranthus retroflexus
Method in brief: as §1

surinam grass = experiment: Test B pre/postemergence surinam grass; assay type: in vivo, Brachiaria decumbens
Method in brief: as §1

[1] = Postemergence, Rate 62 g/ha, scale of 0 to 10, 0 is no effect, 10 is complete control
[2] = Postemergence, Rate 125 g/ha, scale 0 to 10, 0 is no effect, 10 is complete control
[3] = Postemergence, Rate 500 g/ha, scale 0 to 10, 0 is no effect, 10 is complete control
[4] = Preemergence, Rate 62 g/ha, scale of 0 to 10 where 0 is no effect and 10 is complete control
[5] = Preemergence, Rate 125 g/ha, scale 0 to 10, 0 is no effect, 10 is complete control
[6] = Preemergence, Rate 500 g/ha, scale of 0 to 10 where 0 is no effect and 10 is complete control
[7] = Rate 250 g/ha, Postemergence, scale of 0 to 10 where 0 is no effect and 10 is complete control
[8] = Preemergence, Rate 500 g/ha, scale 0 to 10, 0 is no effect, 10 is complete control

CCOC(=O)C=C(Cn1c(=O)on(C(=O)N(c2ccc(F)cc2F)C(C)C)c1=O)OCC [Compound 519]
Rape plant response rating (rape; [1]): 0 | Rape plant response rating (rape; [2]): 0 | Plant response rating, Rape (rape; [3]): 0 | Plant response rating, Rape (rape; [4]): 0 | Rape plant response rating (rape; [5]): 0 | Rape plant response rating (0 to 10 scale) (rape; Preemergence, Rate 250 g/ha): 0 | Rape plant response rating (rape; [6]): 0 | Plant response rating, Rape (rape; [7]): 0 | Giant foxtail plant response rating (giant foxtail; [1]): 4 | Giant foxtail plant response rating (giant foxtail; [2]): 4 | Plant response rating, Giant foxtail (giant foxtail; [3]): 6 | Plant response rating, Giant foxtail (giant foxtail; [4]): 10 | Giant foxtail plant response rating (giant foxtail; [5]): 10 | Giant foxtail plant response rating (0 to 10 scale) (giant foxtail; Preemergence, Rate 250 g/ha): 10 | Giant foxtail plant response rating (giant foxtail; [6]): 10 | Plant response rating, Giant foxtail (giant foxtail; [7]): 4 | Crabgrass plant response rating (crabgrass; [1]): 0 | Crabgrass plant response rating (crabgrass; [2]): 2 | Plant response rating, Crabgrass (crabgrass; [3]): 6 | Plant response rating, Crabgrass (crabgrass; [4]): 7 | Crabgrass plant response rating (crabgrass; [5]): 8 | Crabgrass plant response rating (0 to 10 scale) (crabgrass; Preemergence, Rate 250 g/ha): 10 | Crabgrass plant response rating (crabgrass; [6]): 10 | Plant response rating, Crabgrass (crabgrass; [7]): 6 | Wheat plant response rating (wheat; [1]): 0 | Wheat plant response rating (wheat; [2]): 0 | Plant response rating, Wheat (wheat; [3]): 0 | Plant response rating, Wheat (wheat; [4]): 0 | Wheat plant response rating (wheat; [5]): 0 | Wheat plant response rating (0 to 10 scale) (wheat; Preemergence, Rate 250 g/ha): 0 | Wheat plant response rating (wheat; [6]): 0 | Plant response rating, Wheat (wheat; [7]): 0 | Velvetleaf plant response rating (velvetleaf; [1]): 2 | Velvetleaf plant response rating (velvetleaf; [2]): 2 | Plant response rating, Velvetleaf (velvetleaf; [3]): 4 | Plant response rating, Velvetleaf (velvetleaf; [4]): 0 | Velvetleaf plant response rating (velvetleaf; [5]): 0 | Velvetleaf plant response rating (0 to 10 scale) (velvetleaf; Preemergence, Rate 250 g/ha): 0 | Velvetleaf plant response rating (velvetleaf; [6]): 0 | Plant response rating, Velvetleaf (velvetleaf; [7]): 4 | Soybean plant response rating (soybean; [1]): 3 | Soybean plant response rating (soybean; [2]): 3 | Plant response rating, Soybean (soybean; [3]): 4 | Plant response rating, Soybean (soybean; [4]): 0 | Soybean plant response rating (soybean; [5]): 0 | Soybean plant response rating (0 to 10 scale) (soybean; Preemergence, Rate 250 g/ha): 0 | Soybean plant response rating (soybean; [6]): 0 | Plant response rating, Soybean (soybean; [7]): 4 | Cocklebur plant response rating (cocklebur; [1]): 0 | Cocklebur plant response rating (cocklebur; [2]): 0 | Plant response rating, Cocklebur (cocklebur; [3]): 0 | Plant response rating, Cocklebur (cocklebur; [4]): 0 | Cocklebur plant response rating (cocklebur; [5]): 0 | Cocklebur plant response rating (0 to 10 scale) (cocklebur; Preemergence, Rate 250 g/ha): 0 | Cocklebur plant response rating (cocklebur; [6]): 0 | Plant response rating, Cocklebur (cocklebur; [7]): 0 | Blackgrass plant response rating (blackgrass; [1]): 0 | Blackgrass plant response rating (blackgrass; [2]): 0 | Plant response rating, Blackgrass (blackgrass; [3]): 0 | Plant response rating, Blackgrass (blackgrass; [4]): 0 | Blackgrass plant response rating (blackgrass; [5]): 0 | Blackgrass plant response rating (0 to 10 scale) (blackgrass; Preemergence, Rate 250 g/ha): 4 | Blackgrass plant response rating (blackgrass; [6]): 4 | Plant response rating, Blackgrass (blackgrass; [7]): 0 | Corn plant response rating (corn; [1]): 0 | Corn plant response rating (corn; [2]): 0 | Plant response rating, Corn (corn; [3]): 0 | Plant response rating, Corn (corn; [4]): 0 | Corn plant response rating (corn; [5]): 0 | Corn plant response rating (0 to 10 scale) (corn; Preemergence, Rate 250 g/ha): 0 | Corn plant response rating (corn; [6]): 0 | Plant response rating, Corn (corn; [7]): 0 | Sugarbeets plant response rating (sugar beet; [1]): 0 | Sugarbeets plant response rating (sugar beet; [2]): 0 | Plant response rating, Sugarbeets (sugar beet; [3]): 0 | Plant response rating, Sugarbeets (sugar beet; [4]): 0 | Sugarbeets plant response rating (sugar beet; [5]): 0 | Sugarbeets plant response rating (0 to 10 scale) (sugar beet; Preemergence, Rate 250 g/ha): 0 | Sugarbeets plant response rating (sugar beet; [6]): 0 | Plant response rating, Sugarbeets (sugar beet; [7]): 0 | Morningglory plant response rating (morningglory; [1]): 0 | Morningglory plant response rating (morningglory; [2]): 0 | Plant response rating, Morningglory (morningglory; [3]): 0 | Plant response rating, Morningglory (morningglory; [4]): 0 | Morningglory plant response rating (morningglory; [5]): 0 | Morningglory plant response rating (0 to 10 scale) (morningglory; Preemergence, Rate 250 g/ha): 0 | Morningglory plant response rating (morningglory; [6]): 0 | Plant response rating, Morningglory (morningglory; [7]): 0 | Wild oats plant response rating (wild oat; [1]): 0 | Wild oats plant response rating (wild oat; [2]): 0 | Plant response rating, Wild oats (wild oat; [3]): 0 | Plant response rating, Wild oats (wild oat; [4]): 0 | Wild oats plant response rating (wild oat; [5]): 0 | Wild oats plant response rating (0 to 10 scale) (wild oat; Preemergence, Rate 250 g/ha): 0 | Wild oats plant response rating (wild oat; [6]): 0 | Plant response rating, Wild oats (wild oat; [7]): 0 | Bedstraw plant response rating (bedstraw; [1]): 0 | Plant response rating, Bedstraw (bedstraw; [3]): 0 | Plant response rating, Bedstraw (bedstraw; [4]): 0 | Bedstraw plant response rating (bedstraw; [5]): 0 | Bedstraw plant response rating (0 to 10 scale) (bedstraw; Preemergence, Rate 250 g/ha): 0 | Bedstraw plant response rating (bedstraw; [8]): 0 | Plant response rating, Bedstraw (bedstraw; [7]): 0 | Nutsedge plant response rating (purple nutsedge; [2]): 0 | Plant response rating, Nutsedge (purple nutsedge; [3]): 0 | Plant response rating, Nutsedge (purple nutsedge; [4]): 0 | Nutsedge plant response rating (purple nutsedge; [5]): 0 | Nutsedge plant response rating (purple nutsedge; [6]): 0 | Redroot pigweed plant response rating (pigweed; [1]): 0 | Redroot pigweed plant response rating (pigweed; [2]): 0 | Plant response rating, Redroot pigweed (pigweed; [3]): 0 | Plant response rating, Redroot pigweed (pigweed; [4]): 0 | Redroot pigweed plant response rating (pigweed; [5]): 0 | Redroot pigweed plant response rating (0 to 10 scale) (pigweed; Preemergence, Rate 250 g/ha): 0 | Redroot pigweed plant response rating (pigweed; [6]): 0 | Plant response rating, Redroot pigweed (pigweed; [7]): 0 | B. signalgrass plant response rating (surinam grass; [1]): 0 | B. signalgrass plant response rating (surinam grass; [2]): 0 | Plant response rating, B. signalgrass (surinam grass; [3]): 0 | Plant response rating, B. signalgrass (surinam grass; [4]): 0 | B. signalgrass plant response rating (surinam grass; [5]): 0 | B. signalgrass plant response rating (0 to 10 scale, 0 is no effect, 10 is complete control) (surinam grass; Preemergence, Rate 250 g/ha): 0 | B. signalgrass plant response rating (surinam grass; [8]): 0 | Plant response rating, B. signalgrass (surinam grass; [7]): 0
